Experimental data from ChEMBL document CHEMBL6182916, “Unexpected Discovery of a Novel Triphenylphosphonium Alkylalcohol That Triggers Cancer Cell Death via Mitophagy and Ferroptosis” (J Med Chem, 2025).
pIC50: −log10 of the molar value. Calls of active or inactive are those of the source. The calls are words filed in the database; no cut-off is given here.

Experiments:
[1] = Toxicity in female BALB/c mouse assessed as effect on body weight at 30 mg/kg, ip measured for 7 days; type: organism-based; settings: in vivo, 168 h, time 7 day
HCC827 [2] = assay: Antiproliferative activity against human HCC827 cells assessed as increase in cell viability at 1 uM measured after 48 hrs in presence of Rapa by MTT assay; type: functional, cell-based
HCC827 [3] = assay: Induction of apoptosis in human HCC827 cells assessed as early apoptotic cells at 1 uM measured after 48 hrs by annexin V and PI staining based flow cytometry analysis (reference value: 1.80%); type: functional
HCC827 [4] = assay: Effect on COX1 expression in human HCC827 cells at 0.25 to 0.5 uM incubated for 24 hrs by Western blot analysis; type: functional, cell-based; settings: dose 0.25-0.5 µM
[5] = Toxicity in female nude mouse assessed as drug tolerance at 5 to 10 mg/kg, ip measured after 14 days; type: organism-based; settings: in vivo, 336 h, dose 5-10 mg/kg, time 14 day
HCC827 [6] = assay: Induction of apoptosis in human HCC827 cells assessed as viable cells at 1 uM measured after 36 hrs by annexin V and PI staining based flow cytometry analysis (reference value: 95.10%); type: functional; settings: read-out: Activity
HCC827 [7] = assay: Induction of apoptosis in human HCC827 cells assessed as early apoptotic cells at 1 uM measured after 36 hrs by annexin V and PI staining based flow cytometry analysis (reference value: 1.80%); type: functional
[8] = Toxicity in female Kunming mouse assessed as change in body weight at 70 mg/kg, ip measured every two days for 7 days; type: organism-based; settings: in vivo, 168 h, time 7 day
[9] = Toxicity in female Kunming mouse assessed as change in body weight at 50 mg/kg, ip measured every two days for 7 days; type: organism-based; settings: in vivo, 168 h, time 7 day
HCC827 [10] = assay: Induction of ROS generation in human HCC827 cells assessed as decrease in NADH content at 1 uM incubated for 4 hrs by absorbance based analysis; type: functional, cell-based
HCC827 [11] = assay: Antimetastatic activity against human HCC827 cells xenografted in female nude mouse model assessed as decrease in vimentin level at 5 to 10 mg/kg, ip by Western blot analysis; type: functional, organism-based; settings: dose 5-10 mg/kg
HCC827 [12] = assay: Induction of apoptosis in human HCC827 cells assessed as late apoptotic cells at 1 uM measured after 24 hrs by annexin V and PI staining based flow cytometry analysis (reference value: 2.18%); type: functional
NCI-H1650 = assay: Antiproliferative activity against human NCI-H1650 cells assessed as inhibition of cell growth measured after 72 hrs by MTT assay; type: functional, cell-based; settings: NCI-H1650, 72 h
HCC827 [13] = assay: Effect on ATP5A expression in human HCC827 cells at 0.25 to 0.5 uM; type: functional, cell-based; settings: dose 0.25-0.5 µM
Mitochondrial membrane [14] = assay: Induction of mitochondrial membrane depolarization in human HCC827 cells assessed as increase in J-monomer ratio at 0.125 to 0.5 uM incubated for 4 hrs by JC-1 staining based flow cytometric analysis; type: cell membranes; settings: dose 0.125-0.5 µM
HCC827 [15] = assay: Induction of ferroptosis in human HCC827 cells assessed as decrease in GSH level incubated for 24 hrs by absorbance based analysis; type: functional, cell-based; settings: dose 0.5-2 µM
HCC827 [16] = assay: Induction of cell cycle arrest in human HCC827 cells assessed as accumulation of cells at G2 phase at 0.4 uM incubated for 24 hrs by PI staining based flow cytometry analysis (reference value: 7.15%); type: functional
HCC827 [17] = assay: Antiproliferative activity against human HCC827 cells assessed as cell viability measured after 48 hrs by MTT assay; type: functional, cell-based; settings: HCC827, 48 h
HCC827 [18] = assay: Antimetastatic activity against human HCC827 cells xenografted in female nude mouse model assessed as decrease in snail level at 5 to 10 mg/kg, ip by Western blot analysis; type: functional, organism-based; settings: dose 5-10 mg/kg
HEK-293T [19] = assay: Inhibition of colony formation in HEK293T cells at 0.05 to 0.1 uM incubated for 72 hrs by crystal violet staining based analysis; type: functional, cell-based; settings: Homo sapiens, dose 0.05-0.1 µM
Mitochondrial membrane [20] = assay: Induction of mitochondrial membrane depolarization in human HCC827 cells assessed as increase green fluorescence incubated for 4 hrs by JC-1 staining based confocal microscopy analysis; type: cell membranes; settings: dose 0.125-0.5 µM
HEK-293T [21] = assay: Downregulation of […] expression level in human HEK293T cells; type: functional, cell-based; settings: dose 0.25-0.5 µM
[22] = Toxicity in female nude mouse assessed as effect om weight loss at 5 to 10 mg/kg, ip measured after 14 days; type: organism-based; settings: in vivo, 336 h, dose 5-10 mg/kg, time 14 day
HCC827 [23] = assay: Downregulation of TOMM20 expression level in human HCC827 cells incubated for 24 hrs by Western blot analysis; type: functional, cell-based; settings: dose 0.25-0.5 µM
HCC827 [24] = assay: Effect on ATP5A expression in human HCC827 cells at 0.25 to 0.5 uM incubated for 24 hrs by Western blot analysis; type: functional, cell-based; settings: dose 0.25-0.5 µM
HCC827 [25] = assay: Induction of apoptosis in human HCC827 cells assessed as early apoptotic cells at 1 uM measured after 24 hrs by annexin V and PI staining based flow cytometry analysis (reference value: 1.80%); type: functional
HCC827 [26] = assay: Induction of apoptosis in human HCC827 cells assessed as viable cells at 1.0 uM measured after 48 hrs by annexin V and PI staining based flow cytometry analysis (reference value: 96.74%); type: functional; settings: read-out: Activity
HCC827 [27] = assay: Induction of mitochondrial dysfunction in human HCC827 cells assessed as cytochrome C release in cytoplasm at 0.4 uM measured after 72 hrs by laser scanning confocal fluorescence microscopic analysis; type: functional, cell-based
HCC827 [28] = assay: Effect on UQCRC2 expression in human HCC827 cells at 0.25 to 0.5 uM; type: functional, cell-based; settings: dose 0.25-0.5 µM
HCC827 [29] = assay: Antiproliferative activity against human HCC827 cells assessed as cell viability at 1 uM measured after 48 hrs in presence of deferoxamine by MTT assay relative to control; type: functional; settings: read-out: Activity
HCC827 [30] = assay: Induction of apoptosis in human HCC827 cells assessed as viable cells at 0.5 uM measured after 48 hrs by annexin V and PI staining based flow cytometry analysis (reference value: 96.74%); type: functional; settings: read-out: Activity
[31] = Antiproliferative activity against human Osimertinib-resistant HCC827 cell assessed as inhibition of cell growth measured after 72 hrs by MTT assay; type: functional, cell-based
HCC827 [32] = assay: Induction of mitophagy in human HCC827 cells assessed as increase in LC3-II/LC-3-I ratio at 0.5 uM measured after 24 hrs by Western blot analysis; type: functional, cell-based
HCC827 [33] = assay: Inhibition of cell migration in human HCC827 cells at 0.05 to 0.1 uM incubated for 24 hrs by crystal violet staining based transwell assay; type: functional; settings: dose 0.05-0.1 µM
HCC827 [34] = assay: Effect on COX1 expression in human HCC827 cells at 0.25 to 0.5 uM; type: functional, cell-based; settings: dose 0.25-0.5 µM
HCC827 [35] = assay: Downregulation of […] protein level in human HCC827 cells at 0.25 to 0.5 uM measured after 12 hrs; type: functional, cell-based; settings: dose 0.25-0.5 µM
HCT-116 = assay: Antiproliferative activity against human HCT-116 cells assessed as inhibition of cell growth measured after 72 hrs by MTT assay; type: functional, cell-based; settings: HCT-116, 72 h
[36] = Toxicity in female BALB/c mouse assessed as histopathological changes in lung at 30 mg/kg, ip measured for 7 days by H and E staining based analysis; type: organism-based; settings: in vivo, 168 h, time 7 day
HCC827 [37] = assay: Induction of cell cycle arrest in human HCC827 cells assessed as accumulation of cells at G1 phase at 0.2 uM incubated for 24 hrs by PI staining based flow cytometry analysis (reference value: 66.44%); type: functional

## Cc1ccc([P+](CCCCCCCCCCO)(c2ccc(C)cc2)c2ccc(C)cc2)cc1.[Br-]
[1]
  Activity: Non-toxic
HCC827 [2]
  Activity: inactive
HCC827 [3]
  Activity: 5.33%
HCC827 [4]
  Activity: Active
[5]
  Activity: Non-toxic
HCC827 [6]
  viability at 1 µM: 98.5%
HCC827 [7]
  Activity: 0.18%
[8]
  Activity: Toxic
[9]
  Activity: Toxic
HCC827 [10]
  Activity: Active
HCC827 [11]
  Activity: Active
HCC827 [12]
  Activity: 3.84%
NCI-H1650
  pIC50: 6.33
HCC827 [13]
  Activity: Active
Mitochondrial membrane [14]
  Activity: Active
HCC827 [15]
  Activity: Dose-dependent-effect
HCC827 [16]
  Activity: 4.95%
HCC827 [17]
  pIC50: 6.92
HCC827 [18]
  Activity: Active
HEK-293T [19]
  inhibition: Minimal_effect
Mitochondrial membrane [20]
  Activity: Dose-dependent-effect
HEK-293T [21]
  Activity: Dose-dependent-effect
[22]
  Activity: Non-toxic
HCC827 [23]
  Activity: Dose-dependent-effect
HCC827 [24]
  Activity: Active
HCC827 [25]
  Activity: 1.17%
HCC827 [26]
  viability at 1 µM: 82.8%
HCC827 [27]
  Activity: Active
HCC827 [28]
  Activity: Active
HCC827 [29]
  viability at 1 µM: 51.4%
HCC827 [30]
  viability at 0.5 µM: 88.5%
[31]
  pIC50: 6.64
HCC827 [32]
  Activity: Active
HCC827 [33]
  inhibition: Active
HCC827 [34]
  Activity: Active
HCC827 [35]
  Activity: Active
HCT-116
  pIC50: 6.21
[36]
  Activity: Non-toxic
HCC827 [37]
  Activity: 76.74%
